According to publication PMC2997425, “Acetazolamide-based fungal chitinase inhibitors” (Bioorganic & Medicinal Chemistry, 2010):
Structures can show the parent of a compound that is named as a salt. Where two headings read alike, the source gives them in different places.

Experiments:
[1] = biological target: hCHT (human chitinase) (Homo sapiens, UniProt Q13231); assay: hCHT (human chitinase) inhibition; format: biochemical
[2] = biological target: AfChiA1 (Aspergillus fumigatus, UniProt Q873Y0); assay: biochemical; format: biochemical; settings: for inhibition at 1000 µM: read-out: % inhibition at 1 mM
[3] = biological target: hevamine; set-up: method as in PMID 10922481; settings: read-out: Ki against hevamine; cited from earlier work
[4] = human chitinase, read-out: hCHT IC50
[5] = Table 3, 4-parameter logistic fit

Chain of hCHT (human chitinase) (Q13231 22-466): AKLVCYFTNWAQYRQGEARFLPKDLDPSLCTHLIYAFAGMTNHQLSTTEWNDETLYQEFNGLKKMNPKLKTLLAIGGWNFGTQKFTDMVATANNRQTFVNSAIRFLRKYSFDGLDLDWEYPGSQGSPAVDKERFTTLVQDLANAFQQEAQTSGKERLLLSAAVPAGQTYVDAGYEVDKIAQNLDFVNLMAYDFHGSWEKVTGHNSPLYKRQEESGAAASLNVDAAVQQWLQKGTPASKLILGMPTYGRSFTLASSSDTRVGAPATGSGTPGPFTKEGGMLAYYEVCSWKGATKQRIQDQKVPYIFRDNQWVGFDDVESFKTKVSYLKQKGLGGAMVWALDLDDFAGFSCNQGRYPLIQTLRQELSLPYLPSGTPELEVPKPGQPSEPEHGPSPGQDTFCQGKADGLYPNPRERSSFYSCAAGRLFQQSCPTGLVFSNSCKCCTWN
Chain of AfChiA1 (Q873Y0 29-335): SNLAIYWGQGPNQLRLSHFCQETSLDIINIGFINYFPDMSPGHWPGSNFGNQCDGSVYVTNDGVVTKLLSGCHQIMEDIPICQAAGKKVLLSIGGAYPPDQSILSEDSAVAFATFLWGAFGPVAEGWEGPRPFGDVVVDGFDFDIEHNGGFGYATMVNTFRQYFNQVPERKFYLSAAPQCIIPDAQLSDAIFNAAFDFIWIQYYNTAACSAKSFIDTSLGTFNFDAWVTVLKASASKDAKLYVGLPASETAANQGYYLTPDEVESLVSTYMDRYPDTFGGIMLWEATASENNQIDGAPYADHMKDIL

With `CC(=O)Nc1nncs1` (as salt: salt) [Compound 7, 5-acetamido-1,3,4-thiadiazole] the melting point was 276 to 277 °C.
For `Cn1c(=O)c2[nH]c(Cl)nc2n(C)c1=O` [8-Chloro-theophylline, 8-chlorotheophylline, reference compound], the IC50 [1, 4] was > 2500 µM and the Hill slope [2] was 1.0.
For `CC(=O)N[C@H]1[C@H](O[C@H]2[C@@H](O)[C@@H](NC(C)=O)[C@H](O[C@H]3[C@H](O)[C@H]4N=C(N(C)C)O[C@H]4[C@@H]3CO)O[C@@H]2CO)O[C@H](CO)[C@@H](O)[C@H]1O` [Allosamidin, reference compound], the Ki [3] is listed as 3.1 µM and the Hill slope ([2]; Fig. 1, triplicate, four-parameter logistic fit) is listed as 0.9.
For `CC(=O)Nc1nnc(S(N)(=O)=O)s1` [Compound 1, acetazolamide], the IC50 [1, 4] was > 1000 µM.
For `CCC(=O)Nc1nnc(S(N)(=O)=O)s1` [Compound 2, 5-propylamido-2-sulfamoyl-1,3,4-thiadiazole], the Hill slope [2] was 0.71, the “inhibitory activity against AfChiA1 (in words)” value (shortened to “inhibitory activity”) [2] was “reduction in activity” and the inhibition at 1000 µM [2] was 76%.
`NS(=O)(=O)c1nnc(NC(=O)c2ccccc2)s1` [Compound 5, 5-benzylamido-2-sulfamoyl-1,3,4-thiadiazole] showed a Hill slope [2, 5] of 0.5 and an inhibition at 1000 µM [2] of 51%.
For `Nc1nnc(S(N)(=O)=O)s1` [Compound 6, 5-amino-2-sulfamoyl-1,3,4-thiadiazole monohydrochloride], the “inhibitory activity” value [2] was “abolishes inhibitory activity”.
With `CC(=O)Nc1nncs1` [Compound 7, 5-acetamido-1,3,4-thiadiazole] the “inhibitory activity” value [2] was “abrogate activity”.
For `CC(=O)Nc1nnc(C)s1` [Compound 8], the “inhibitory activity” value [2] was “abrogate activity”.
For `CC(=O)Nc1nnc(S)s1` [Compound 9, 5-Acetamido-2-thiol-1,3,4-thiadiazole], the Hill slope [2, 5] was 1.1.
`CC(=O)Nc1nnc(-c2ccccc2)s1` [Compound 10] gave a Hill slope [2, 5] of 0.5.
With `CC(=O)Nc1nnc(C(F)(F)F)s1` [Compound 11] the Hill slope [2, 5] was 1.1.
`CC(=O)Nc1nnc(Br)s1` [Compound 12] gave a Hill slope [2, 5] of 0.7.
`COc1cccc(CSc2nnc(NC(C)=O)s2)c1` [Compound 14] showed an inhibition at 1000 µM [2] of 38%.
`O=C(Nc1nnc(-c2ccccc2)s1)C(F)(F)F` [Compound 15] showed a Hill slope [2] of 1.2 and an inhibition at 1000 µM [2] of 85%.
Work on `O=C(Nc1nnc(N2CCN(c3cccc(Cl)c3)CC2)s1)C(F)(F)F` [Compound 17] yielded an inhibition at 1000 µM [2] of 30%.
In the case of `CC(C)Cc1nnc(NC(=O)CCl)s1` [Compound 20], the “inhibitory activity” value [2] is reported as “reduction in activity”.
In the case of `O=C(CCl)Nc1nnc(C(F)(F)F)s1` [Compound 21], the “inhibitory activity” value [2] is reported as “reduction in activity”.
With `c1coc(CNc2ncnc3[nH]cnc23)c1` [Kinetin, reference compound] the IC50 [1] was > 1000 µM and the “inhibitory activity” value [2] was “failed to show any discernable effect”.
